PMC9181987, “Disclosing the Potential of Fluorinated Ionic Liquids as Interferon-Alpha 2b Delivery Systems” (Nanomaterials, 2022)

Legend:
[1] = cited from earlier work
IFN-α 2b [2] = target: T1, IFN-α 2b (Homo sapiens, UniProt P01563); experiment: Microscale thermophoresis (MST) binding affinity of FILs with labelled IFN-α 2b; settings: for Kd: labelled IFN-α 2b 2.7 μM, 5 mM NaH2PO4 pH 7.4, 25 °C, ± = Kd confidence of the fitting
T1 construct: purchased Sigma-Aldrich SRP4595; host or cells: E. coli
T1 sequence (P01563 24-188): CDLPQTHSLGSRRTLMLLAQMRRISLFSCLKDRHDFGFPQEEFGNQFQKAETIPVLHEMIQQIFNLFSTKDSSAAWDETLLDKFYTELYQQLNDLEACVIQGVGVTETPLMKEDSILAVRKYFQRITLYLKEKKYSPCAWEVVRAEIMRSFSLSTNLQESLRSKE
Procedure: Several dilution series of 16 samples of 20 μL were prepared in triplicate for each studied system. All the solutions were prepared in the buffer of the protein, 5 mM of NaH2PO4 (pH = 7.4), and PCR tubes. In the first tube (1 out 16) 20 μL of FIL stock solution was added at twofold the maximum concentration defined for each assay. In the remaining 15 tubes, 10 μL of buffer was added, followed by the series dilution of the FIL. […] The selected concentrations cover the range where the distinct CACs are formed in each FIL. The excitation power was determined by a pre-test and set to 20% whereas the MST power was set to medium (standard). The assays were executed in standard capillaries and triplicates. The results were processed using the MO.Affinity Analysis v2.3 software (NanoTemper Technologies, Munich, Germany).
In the process of labelling, commonly, one amine per protein is labelled, statistically distributing the position of the dye. […] As explained in the experimental section, in each run of MST, a maximum concentration is chosen and is consecutively diluted in 16 capillaries.

[3] = parameters: method as in doi:10.5772/INTECHOPEN.96336, doi:10.1016/j.molliq.2022.119285, PMID 25580898; settings: cited from earlier work
IFN-α 2b [4] = target: T1, IFN-α 2b; experiment: Intrinsic fluorescence spectroscopy of IFN-α 2b with FILs (λmax shift, Stern–Volmer quenching); type: binding
Procedure: The concentrations were chosen to cover the range where the different aggregates of the FILs are formed. Samples, equilibrated for 30 min at room temperature, and 400 μL of each solution were transferred to a quartz cuvette of 10 mm pathlength and excited at 280 nm, collecting the fluorescence intensity in a wavelength range of 300 to 450 nm. The width of the excitation and emission slit was set to 5 nm for both cases. The spectra of FIL solutions (blanks) were discounted to the spectra of FIL + protein samples to avoid any possible effect of FIL concentration increment in the fluorescence intensity.
A very well-known equation, the Stern–Volmer, was used to characterize the quenching occurring in this region. This equation characterizes the collisional quenching that can occur when the excited state of the fluorophore is disabled due to contact with another molecule (quencher), without chemical alteration. Therefore, the collisional quenching is described by:(11) F0/F=1+K[Q]=1+kqτ0[Q] where F0 and F are the fluorescence intensities of the fluorophore in the absence and presence of the quencher, respectively, K is the Stern–Volmer quenching constant, kq is the biomolecular quenching constant, τ0 is the unquenched lifetime, and [Q] is the quencher concentration. […] This value gives information on the sensitivity of the fluorophore to a quencher.

[5] = Dynamic light scattering: aggregate size and polydispersity index; type: physicochemical; settings: 150 mM NaH2PO4, 25°C
Procedure: These concentrations were chosen to comprise two different aggregates of each FIL, above the 1st CAC and the 3rd CAC. […] Therefore, 20 μL was transferred into a quartz cell of 10 mm pathlength and measured at 25 °C.
Moreover, the polydispersity index (PdI) was obtained by DLS which determines the heterogeneity of the sample in the function of the size.

| SMILES | toxicity [1] | binding to IFN-α 2b (MST) (IFN-α 2b [2]; four runs, maximum concentrations 15, 35, 70, 375 mM) | miscibility in water [3] | Stern–Volmer quenching constant K (IFN-α 2b [4]; IFN-α 2b 20 μg/mL, region ~14 mM to ~110 mM FIL, 5 mM NaH2PO4 pH 7.4, excitation 280 nm) [mM⁻¹] | red shift of λmax (IFN-α 2b [4]; concentration close to the 3rd CAC, IFN-α 2b 20 μg/mL) [nm] | red shift of λmax (IFN-α 2b [4]; concentrations above 384 mM, IFN-α 2b 20 μg/mL) | biomolecular quenching constant kq (IFN-α 2b [4]; from K and τ0 of IFN-α 2b) [M⁻¹ s⁻¹] | Polydispersity index (PdI) ([5]; 29.8 mM FIL) | Polydispersity index (PdI) ([5]; 248.0 mM FIL) | Kd (IFN-α 2b [2]; assay 70 − 2.1 × 10^−3 mM FIL) [mM] | Kd (IFN-α 2b [2]; assay 375 − 1.1 × 10^−2 mM FIL) [mM] |
| --- | --- | --- | --- | --- | --- | --- | --- | --- | --- | --- | --- |
| C[N+](C)(C)CCO.O=S(=O)([O-])C(F)(F)C(F)(F)C(F)(F)C(F)(F)F [[N1112(OH)][C4F9SO3], (2-Hydroxyethyl)trimethylammonium perfluorobutanesulfonate] | negligible toxicity | binding only occurs for the runs where concentrations were above the 2nd and 3rd CAC | full miscibility in water | 0.00195 | 3 | up to 8 nm | 6.61e+08 | 0.784 | 0.543 |  |  |
| O=S(=O)(O)C(F)(F)C(F)(F)C(F)(F)C(F)(F)F [[N1112(OH)][C4F9SO3], (2-Hydroxyethyl)trimethylammonium perfluorobutanesulfonate] |  |  |  |  |  |  |  |  |  | 0.000597 | 54.7 ± 36.9 |
